Assay results: paper PMC6484527 (Slas Discovery, 2018)
Read-outs that look alike come from different tables or passages of the source.

Tests used:
B-Raf [1] = target: T1, B-Raf (Homo sapiens, UniProt P15056, V600E); experiment: B-Raf CETSA HT single-concentration screen of kinase inhibitor library; assay type: cell-based; details: 30 µM, 2 h incubation with live A375 cells, 49 °C heatshock, two technical repeats
B-Raf [2] = target: T1, B-Raf; experiment: cell-based; assay type: cell-based; details: for EC50: B-Raf ITDRFCETSA pEC50, 2 h incubation with live A375 cells, mean ± standard deviation of ⩾3 technical repeats
purified B-Raf protein = purified B-Raf protein (Homo sapiens, UniProt P15056); experiment: Differential scanning fluorimetry with purified B-Raf protein; assay type: binding; details: same concentration (30 µM); data not shown
purified B-Raf protein, sequence (P15056 whole entry): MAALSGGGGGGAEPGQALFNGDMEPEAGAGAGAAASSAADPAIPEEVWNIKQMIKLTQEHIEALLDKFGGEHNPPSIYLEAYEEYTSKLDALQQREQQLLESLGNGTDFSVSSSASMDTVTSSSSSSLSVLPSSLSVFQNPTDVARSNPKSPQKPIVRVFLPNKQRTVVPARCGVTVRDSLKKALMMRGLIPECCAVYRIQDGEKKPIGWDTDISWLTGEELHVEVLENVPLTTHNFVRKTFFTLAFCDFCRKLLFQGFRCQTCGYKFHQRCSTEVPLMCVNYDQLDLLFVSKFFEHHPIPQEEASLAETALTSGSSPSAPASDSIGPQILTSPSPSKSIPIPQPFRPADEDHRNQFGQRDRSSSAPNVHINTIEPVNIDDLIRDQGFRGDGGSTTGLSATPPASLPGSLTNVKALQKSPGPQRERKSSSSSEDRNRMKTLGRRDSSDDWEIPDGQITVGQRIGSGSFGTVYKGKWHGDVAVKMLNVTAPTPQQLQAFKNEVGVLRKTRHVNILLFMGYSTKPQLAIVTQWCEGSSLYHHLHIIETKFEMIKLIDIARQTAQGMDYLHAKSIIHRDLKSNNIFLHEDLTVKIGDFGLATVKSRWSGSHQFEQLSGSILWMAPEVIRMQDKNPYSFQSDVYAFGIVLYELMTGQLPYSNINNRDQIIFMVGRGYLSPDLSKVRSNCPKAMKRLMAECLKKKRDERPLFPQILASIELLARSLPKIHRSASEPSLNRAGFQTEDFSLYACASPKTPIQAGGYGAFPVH

[3] = A375 cells, at least three technical repeats

T1 sequence (P15056 whole entry V600E): as the sequence (P15056 whole entry) above, with V600E counted along it

| SMILES | Thermal stabilization of B-Raf in CETSA HT screen (hit call) (B-Raf [1]) | B-Raf ITDRFCETSA activity (in words) (B-Raf [2]) | B-Raf ITDRFCETSA activity (in words) (B-Raf [2]; [3]) | also measured |
| --- | --- | --- | --- | --- |
| CC(C)(C)c1nc(-c2cccc(NS(=O)(=O)c3c(F)cccc3F)c2F)c(-c2ccnc(N)n2)s1 [Dabrafenib, dabrafenib] | active | clear evidence of target engagement | – | – |
| CNS(=O)(=O)Nc1nccc(Cc2c(C)c3ccc(Oc4ncccn4)cc3oc2=O)c1F [CH-5126766] | – | – | weak activity | EC50 (B-Raf [2]): 10 µM |
| OCCn1cc(-c2ccc3c(c2)CC/C3=N\O)c(-c2ccncc2)n1 [GDC-0879] | hits | – | – | – |
| Cc1ccc(NC(=O)c2cccc(C(C)(C)C#N)c2)cc1Nc1ccc2ncn(C)c(=O)c2c1 [AZ628] | – | – | clear evidence of target engagement | – |
| C[C@@H](Oc1cc(-c2cnn(C3CCNCC3)c2)cnc1N)c1c(Cl)ccc(F)c1Cl [Crizotinib, crizotinib] | – | – | inactive | – |
| CNc1ncc2cc(-c3cc(NC(=O)NCCC(C)(C)C)c(F)cc3C)c(C)nc2n1 [LY3009120] | – | clear evidence of target engagement | – | – |
| CCn1c(=O)c(-c2cc(NC(=O)Nc3ccccc3)c(F)cc2Br)cc2cnc(NC)cc21 [DCC-2618] | Activity was also observed | – | – | Thermal stabilization of purified B-Raf protein by differential scanning fluorimetry (purified B-Raf protein): showed thermal stabilization |
| COc1cc2ncnc(Oc3cccc(NC(=O)Nc4cc(C(C)(C)C(F)(F)F)on4)c3)c2cc1OC [CEP-32496] | hits | – | – | – |
| O=C(Nc1ccc2[nH]nc(-c3ccncc3)c2c1)[C@@H]1CCN(CC(=O)N2CCN(c3ccc(-c4ncccn4)cc3)CC2)C1 [SCH772984] | – | – | inactive | EC50 (B-Raf [2]): > 31.6 µM |
| O=C(NOCCO)c1ccc2cncn2c1Nc1ccc(I)cc1F [GDC-0623] | – | – | inactive | EC50 (B-Raf [2]): > 31.6 µM |
| Cc1ccc(C(=O)Nc2ccc(CN3CCN(C)CC3)c(C(F)(F)F)c2)cc1C#Cc1cnc2cccnn12 [ponatinib] | showed activity | – | – | – |
| CCCS(=O)(=O)Nc1ccc(F)c(C(=O)c2c[nH]c3ncc(Cl)cc23)c1F [PLX4720] | – | clear evidence of target engagement | – | – |
| CCCS(=O)(=O)Nc1ccc(F)c(C(=O)c2c[nH]c3ncc(-c4ccc(Cl)cc4)cc23)c1F [Vemurafenib, vemurafenib] | active | clear evidence of target engagement | – | – |
